# Patent publication US20140350273A1, “PEDIATRIC USES OF CABAZITAXEL” (AVENTIS PHARMA S.A., priority 2012, published 2014)
# Where two headings read alike, the source gives them in different places.
# System: human rhabdomyosarcoma RH-30
# Format: in vivo
# Conditions: for Average body weight change in % per mouse at nadir / Drug death (Day of death) / Regressions Complete / Regressions Partial / Tumor free survivors at day 120 / day of nadir / Biological interpretation / ΔT/ΔC in % (day 27): 18
# Description: This efficacy may be quantified, for example, as changes in tumor volume for each treated (T) and control (C) group, which are calculated for each animal and each day by subtracting the tumor volume on the day of first treatment (staging day) from the tumor volume on the specified observation day. This allows calculating the tumor growth inhibition: ΔT/ΔC=(median delta T/median delta C)×100. Individual tumor volume changes from baseline are thereafter analyzed by a non-parametric two-way ANOVA-TYPE (with factors: group and repeated days) followed by a post-hoc contrasts analysis, with Bonferroni-Holm adjustment for multiplicity, comparing all treated groups to the control group. […] A probability less than 5% (p<0.05) was considered as significant.
# Based on the National Cancer Institute (NCl) standards, a ΔT/ΔC≦40% is the minimal level required to declare activity.
# The tumor doubling time (in days; Td) was estimated from the plot of the log linear growth of the control group tumors in exponential growth (100 to 1000 mm^3 range) [T. H. Corbett et al., Cancer, 40: 2660-2680 (1977); F. M. Schabel et al., Cancer Drug Development, Part B, Methods in Cancer Research, 17: 3-51, New York, Academic Press Inc. (1979)].
# This efficacy may also be quantified by the number of tumor regressions observed after therapy. Individual mice reporting a tumor volume ≦50% of the Day 0 measurement for two consecutive measurements over a seven day period were considered partial responders (PR). Individual mice lacking palpable tumors (<4×4 mm^2 for two consecutive measurements over a seven day period) were classified as complete responders (CR); a CR that persisted until study completion was considered a tumor-free survivor (TFS).
# The animals subjected to the experiment are subcutaneously grafted unilaterally with approximately 30 mg of a tumor fragment on day 0. The animals are implanted with a human tumor xenografted in immunocompromized mice. Several days post tumor implantation, mice are randomized according to their body weight to the different groups of treatments and controls. The animals are observed every day. […] The groups are then weighed once or twice a week until the end of the trial.
# The tumors are measured 1 to 5 times a week, depending on the tumor doubling time, until the tumor reaches approximately 1,000 mm^3, or until the animal dies (if this occurs before the tumor reaches 1,000 mm^3). The animals are necropsied immediately after euthanasia or death.
# The selected tumor model was a human rhabdomyosarcoma RH-30, xenografted in SCID mice [Douglass E C, et al. Cytogenet Cell Genet. 1987; 45(3-4):14855.].
# Treatment solutions were prepared first by mixing 1 volume of ethanolic stock solution and 1 volume of polysorbate 80, then by adding 18 volumes of glucose 5% in water.
# [1] = 3.5 mg/kg per injection (total 7.0) IV days 14
# [2] = 3.5 mg/kg per injection (total 7.0) IV days 14, listed as DOCETAXEL
# [3] = 3.5 mg/kg per injection (total 7.0) IV days 14, listed as docetaxel
# [4] = 5.6 mg/kg per injection (total 11.2) IV days 14
# [5] = 5.6 mg/kg per injection (total 11.2) IV days 14, listed as DOCETAXEL
# [6] = 9.0 mg/kg per injection (total 18) IV days 14
# [7] = 9.0 mg/kg per injection (total 18) IV days 14, listed as DOCETAXEL
# [8] = 14.5 mg/kg per injection (total 29) IV days 14
# [9] = 14.5 mg/kg per injection (total 29) IV days 14, listed as DOCETAXEL
# [10] = 14.5 mg/kg per injection (total 29) IV days 14, listed as docetaxel
structure (smiles),measurement,setting,value
"CC(=O)O[C@@]12CO[C@@H]1C[C@H](O)[C@@]1(C)C(=O)[C@H](O)C3=C(C)[C@@H](OC(=O)[C@H](O)[C@@H](NC(=O)OC(C)(C)C)c4ccccc4)C[C@@](O)([C@@H](OC(=O)c4ccccc4)[C@H]21)C3(C)C [Docetaxel, docetaxel]",Average body weight change in % per mouse at nadir,[1],−1.8%
same,Drug death (Day of death),[1],0/6
same,Regressions Complete,[1],0/6
same,Regressions Partial,[1],0/6
same,Tumor free survivors at day 120,[1],0/6
same,day of nadir,[1],(15) day
same,Biological interpretation,[2],Inactive
same,ΔT/ΔC in % (day 27),[2],77%
same,Biological interpretation,[3],inactive
same,ΔT/ΔC in % (day 27),[3],> 40%
same,Tumor volume changes from baseline: Median (nMad),"3.5 mg/kg, day 19",477
same,Tumor volume changes from baseline: Median (nMad),"3.5 mg/kg, day 20",475
same,Tumor volume changes from baseline: Median (nMad),"3.5 mg/kg, day 22",495.5
same,Tumor volume changes from baseline: Median (nMad),"3.5 mg/kg, day 25",621.5
same,Tumor volume changes from baseline: Median (nMad),"3.5 mg/kg, day 27",736
same,Tumor volume changes from baseline: Median (nMad),"3.5 mg/kg, day 29",905.5
same,Average body weight change in % per mouse at nadir,[4],−12.1%
same,Drug death (Day of death),[4],0/6
same,Regressions Complete,[4],0/6
same,Regressions Partial,[4],4/6
same,Tumor free survivors at day 120,[4],0/6
same,day of nadir,[4],(25) day
same,Biological interpretation,[5],Highly
same,ΔT/ΔC in % (day 27),[5],<0%
same,Biological interpretation,"5.6 mg/kg per injection (total 11.2) IV days 14, listed as docetaxel",highly active
same,Tumor volume changes from baseline: Median (nMad),"5.6 mg/kg, day 18",218 (84.5)
same,Tumor volume changes from baseline: Median (nMad),"5.6 mg/kg, day 19",289 (57.1)
same,Tumor volume changes from baseline: Median (nMad),"5.6 mg/kg, day 20",409.5
same,Tumor volume changes from baseline: Median (nMad),"5.6 mg/kg, day 22",405.5
same,Tumor volume changes from baseline: Median (nMad),"5.6 mg/kg, day 25",−30.5
same,Tumor volume changes from baseline: Median (nMad),"5.6 mg/kg, day 29",−47 (89.7)
same,Tumor volume changes from baseline: Median (nMad),"5.6 mg/kg, day 33",67 (262.4)
same,Tumor volume changes from baseline: Median (nMad),"5.6 mg/kg, day 39",454.5
same,Tumor volume changes from baseline: Median (nMad),"5.6 mg/kg, day 41",712
same,Tumor volume changes from baseline: Median (nMad),"5.6 mg/kg, day 43",1039.5
same,Tumor volume changes from baseline: Median (nMad),"5.6 mg/kg, day 35",129
same,Average body weight change in % per mouse at nadir,[6],−11.2%
same,Drug death (Day of death),[6],0/6
same,Regressions Complete,[6],0/6
same,Regressions Partial,[6],2/6
same,Tumor free survivors at day 120,[6],0/6
same,day of nadir,[6],(25) day
same,Biological interpretation,[7],Highly
same,ΔT/ΔC in % (day 27),[7],<0%
same,Biological interpretation,"9.0 mg/kg per injection (total 18) IV days 14, listed as docetaxel",highly active
same,Tumor volume changes from baseline: Median (nMad),"9 mg/kg, day 18",202 (98.6)
same,Tumor volume changes from baseline: Median (nMad),"9 mg/kg, day 19",202 (71.9)
same,Tumor volume changes from baseline: Median (nMad),"9 mg/kg, day 20",325
same,Tumor volume changes from baseline: Median (nMad),"9 mg/kg, day 22",290.5
same,Tumor volume changes from baseline: Median (nMad),"9 mg/kg, day 25",115.5
same,Tumor volume changes from baseline: Median (nMad),"9 mg/kg, day 29",119.5
same,Tumor volume changes from baseline: Median (nMad),"9 mg/kg, day 33",272
same,Tumor volume changes from baseline: Median (nMad),"9 mg/kg, day 39",676
same,Tumor volume changes from baseline: Median (nMad),"9 mg/kg, day 41",904.5
same,Tumor volume changes from baseline: Median (nMad),"9 mg/kg, day 43",909
same,Average body weight change in % per mouse at nadir,[8],−17.6%
same,Drug death (Day of death),[8],0/6
same,Regressions Complete,[8],3/6
same,Regressions Partial,[8],5/6
same,day of nadir,[8],(27) day
same,ΔT/ΔC in % (day 27),[8],1%
same,Biological interpretation,[9],Very
same,Tumor free survivors at day 120,[9],0/6
same,Biological interpretation,[10],very active
same,Tumor free survivors at day 120,[10],without TFS
same,Tumor volume changes from baseline: Median (nMad),"14.5 mg/kg, day 18",166.5
same,Tumor volume changes from baseline: Median (nMad),"14.5 mg/kg, day 19",195 (83)
same,Tumor volume changes from baseline: Median (nMad),"14.5 mg/kg, day 25",154.5
same,Tumor volume changes from baseline: Median (nMad),"14.5 mg/kg, day 27",13 (67.5)
same,Tumor volume changes from baseline: Median (nMad),"14.5 mg/kg, day 29",87 (100.8)
same,Tumor volume changes from baseline: Median (nMad),"14.5 mg/kg, day 33",17 (111.2)
same,Tumor volume changes from baseline: Median (nMad),"14.5 mg/kg, day 46",18.5
same,Tumor volume changes from baseline: Median (nMad),"14.5 mg/kg, day 50",485
same,Tumor volume changes from baseline: Median (nMad),"14.5 mg/kg, day 35",−80 (63.8)
same,Tumor volume changes from baseline: Median (nMad),"14.5 mg/kg, day 39",−112
same,Tumor volume changes from baseline: Median (nMad),"14.5 mg/kg, day 41",−96 (78.6)
same,Tumor volume changes from baseline: Median (nMad),"14.5 mg/kg, day 43",−72.5
